Test results reported in patent US7943770B2, “Fused quinoline derivative and use thereof” (Takeda Pharmaceutical Company Limited, priority 2004, dated 2011).

Target: T1, hNK2 receptor (Homo sapiens, UniProt P21452)
T1 construct: host or cells: CHO cells
T1 sequence (P21452 1-398): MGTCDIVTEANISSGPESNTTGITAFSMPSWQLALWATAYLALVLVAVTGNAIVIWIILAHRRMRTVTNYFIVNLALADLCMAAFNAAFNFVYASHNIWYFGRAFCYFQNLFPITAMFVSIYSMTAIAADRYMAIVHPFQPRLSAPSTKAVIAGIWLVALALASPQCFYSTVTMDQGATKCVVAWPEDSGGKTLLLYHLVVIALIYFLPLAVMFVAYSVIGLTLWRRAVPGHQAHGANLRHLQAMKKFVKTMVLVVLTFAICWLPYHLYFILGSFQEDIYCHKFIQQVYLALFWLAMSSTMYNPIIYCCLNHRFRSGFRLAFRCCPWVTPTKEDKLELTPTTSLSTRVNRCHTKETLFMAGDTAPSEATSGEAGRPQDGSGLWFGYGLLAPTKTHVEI
Test: Radio-ligand ([125I]-NKA) receptor binding inhibitory activity using membrane fraction of hNK2 receptor-expressing CHO cell
Conditions: membrane fraction of hNK2 receptor-expressing CHO cells, 25° C., 30 min
Summary of the method: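 Inhibition of [125I]-NKA binding ([…] solution added) measured after 30 min at 25 °C using hNK2-CHO membrane fraction (20 μg/mL suspension) in pH 7.4 Tris buffer containing MnCl2, BSA and protease inhibitors. Filter-bound counts read; activity calculated as fraction of specific binding, non-specific defined with unlabeled NKA.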

Compound	IC50 [nM]
Cn1ccnc1[C@@H]1Nc2ccccc2[C@H]2[C@@H]1CCN2C(=O)[C@H]1CCCC[C@H]1NC(=O)c1ccccc1 [Example 82, N-((1R,2S)-2-{[(3aR,4R,9bR)-4-(1-Methyl-1H-imidazol-2-yl)-2,3,3a,4,5,9b-hexahydro-1H-pyrrolo[3,2-c]quinolin-1-yl]carbonyl}cyclohexyl)benzamide]	< 10
N#Cc1ccc(C(=O)N[C@@H]2CCCC[C@@H]2C(=O)N2CC[C@@H]3[C@H](c4ccccc4)Nc4ccccc4[C@@H]32)cc1 [Example 102, 4-Cyano-N-((1R,2S)-2-([(3aR,4R,9bR)-4-phenyl-2,3,3a,4,5,9b-hexahydro-1H-pyrrolo[3,2-c]quinolin-1-yl]carbonyl)cyclohexyl)benzamide]	< 10
COC[C@@H]1Nc2ccccc2[C@H]2[C@@H]1CCN2C(=O)[C@H]1CCCC[C@H]1NC(=O)c1ccc2[nH]cnc2c1 [Example 259, N-((1R,2S)-2-{[(3aR,4R,9bR)-4-(Methoxymethyl)-2,3,3a,4,5,9b-hexahydro-1H-pyrrolo[3,2-c]quinolin-1-yl]carbonyl}cyclohexyl)-1H-benzimidazole-5-carboxamide]	< 10
O=C(NCC(F)(F)F)N[C@@H]1CCCC[C@@H]1C(=O)N1CC[C@@H]2[C@H](c3ccccc3)Nc3ccccc3[C@@H]21 [Example 173, N-((1R,2S)-2-{[(3aR,4R,9bR)-4-Phenyl-2,3,3a,4,5,9b-hexahydro-1H-pyrrolo[3,2-c]quinolin-1-yl]carbonyl}cyclohexyl)-N′-(2,2,2-trifluoroethyl)urea]	< 10
O=C(/C=C/c1ccc(C(F)(F)F)cc1)N[C@@H]1CCCC[C@@H]1C(=O)N1CC[C@@H]2[C@H](c3ccccc3)Nc3ccccc3[C@@H]21 [Example 106, (2E)-N-((1R,2S)-2-{[(3aR,4R,9bR)-4-Phenyl-2,3,3a,4,5,9b-hexahydro-1H-pyrrolo[3,2-c]quinolin-1-yl]carbonyl}cyclohexyl)-3-[4-(trifluoromethyl)phenyl]acrylamide]	< 10
CCCCNC(=O)N[C@@H]1CCCC[C@@H]1C(=O)N1CC[C@@H]2[C@H](CCC)Nc3ccccc3[C@@H]21 [Example 199, N-Butyl-N′-((1R,2S)-2-{[(3aR,4S,9bR)-4-propyl-2,3,3a,4,5,9b-hexahydro-1H-pyrrolo[3,2-c]quinolin-1-yl]carbonyl}cyclohexyl)urea]	< 10
COC[C@@H]1Nc2ccccc2[C@H]2[C@@H]1CCN2C(=O)[C@H]1CCCC[C@H]1NC(=O)c1ccc(-n2ccnc2C)nc1 [Example 287, N-((1R,2S)-2-{[(3aR,4R,9bR)-4-(Methoxymethyl)-2,3,3a,4,5,9b-hexahydro-1H-pyrrolo[3,2-c]quinolin-1-yl]carbonyl}cyclohexyl)-6-(2-methyl-1H-imidazol-1-yl)nicotinamide]	< 10
COC[C@@H]1Nc2ccccc2[C@H]2[C@@H]1CCN2C(=O)[C@H]1CCCC[C@H]1NC(=O)c1ccc(-n2cccc2)cc1 [Example 258, N-((1R,2S)-2-{[(3aR,4R,9bR)-4-(Methoxymethyl)-2,3,3a,4,5,9b-hexahydro-1H-pyrrolo[3,2-c]quinolin-1-yl]carbonyl}cyclohexyl)-4-(1H-pyrrol-1-yl)benzamide]	< 1
O=C(N[C@@H]1CCCC[C@@H]1C(=O)N1CC[C@@H]2[C@H](c3ccsc3)Nc3ccccc3[C@@H]21)c1ccccc1 [Example 60, N-((1R,2S)-2-{[(3aR,4R,9bR)-4-(3-Thienyl)-2,3,3a,4,5,9b-hexahydro-1H-pyrrolo[3,2-c]quinolin-1-yl]carbonyl}cyclohexyl)benzamide]	< 1
COC[C@@H]1Nc2ccccc2[C@H]2[C@@H]1CCN2C(=O)[C@H]1CCCC[C@H]1NC(=O)c1ccc2[nH]c(C)nc2c1 [Example 279, N-((1R,2S)-2-{[(3aR,4R,9bR)-4-(Methoxymethyl)-2,3,3a,4,5,9b-hexahydro-1H-pyrrolo[3,2-c]quinolin-1-yl]carbonyl}cyclohexyl)-2-methyl-1H-benzimidazole-5-carboxamide]	< 1
COC[C@@H]1Nc2ccccc2[C@H]2[C@@H]1CCN2C(=O)[C@H]1CCCC[C@H]1NC(=O)c1ccc(-n2cncn2)cc1 [Example 265, N-((1R,2S)-2-{[(3aR,4R,9bR)-4-(Methoxymethyl)-2,3,3a,4,5,9b-hexahydro-1H-pyrrolo[3,2-c]quinolin-1-yl]carbonyl}cyclohexyl)-4-(1H-1,2,4-triazol-1-yl)benzamide]	< 1
O=C(NCc1ccccc1)N[C@@H]1CCCC[C@@H]1C(=O)N1CC[C@@H]2[C@H](c3ccccc3)Nc3ccccc3[C@@H]21 [Example 143, N-Benzyl-N′-((1R,2S)-2-{[(3aR,4R,9bR)-4-phenyl-2,3,3a,4,5,9b-hexahydro-1H-pyrrolo[3,2-c]quinolin-1-yl]carbonyl}cyclohexyl)urea]	< 10
COC[C@@H]1Nc2ccccc2[C@H]2[C@@H]1CCN2C(=O)[C@H]1CCCC[C@H]1NC(=O)Nc1ccc(OC)cc1 [Example 206, N-((1R,2S)-2-{[(3aR,4R,9bR)-4-(Methoxymethyl)-2,3,3a,4,5,9b-hexahydro-1H-pyrrolo[3,2-c]quinolin-1-yl]carbonyl}cyclohexyl)-N′-(4-methoxyphenyl)urea]	< 1
CCC[C@@H]1Nc2ccccc2[C@H]2[C@@H]1CCN2C(=O)[C@H]1CCCC[C@H]1NC(=O)c1ccc2[nH]c(C)nc2c1 [Example 201, 2-methyl-N-((1R,2S)-2-{[(3aR,4S,9bR)-4-propyl-2,3,3a,4,5,9b-hexahydro-1H-pyrrolo[3,2-c]quinolin-1-yl]carbonyl}cyclohexyl)-1H-benzimidazole-5-carboxamide]	< 1

More lines, now with the values ahead:

IC50 [nM]	Compound
< 1	O=C(N[C@@H]1CCCC[C@@H]1C(=O)N1CC[C@@H]2[C@H](C3CC3)Nc3ccccc3[C@@H]21)c1ccc(F)cc1 [Example 182, N-((1R,2S)-2-{[(3aR,4S,9bR)-4-Cyclopropyl-2,3,3a,4,5,9b-hexahydro-1H-pyrrolo[3,2-c]quinolin-1-yl]carbonyl}cyclohexyl)-4-fluorobenzamide]
< 10	O=C(Nc1cccc(Cl)c1)N[C@@H]1CCCC[C@@H]1C(=O)N1CC[C@@H]2[C@H](c3ccccc3)Nc3ccccc3[C@@H]21 [Example 141, N-(3-Chlorophenyl)-N′-((1R,2S)-2-{[(3aR,4R,9bR)-4-phenyl-2,3,3a,4,5,9b-hexahydro-1H-pyrrolo[3,2-c]quinolin-1-yl]carbonyl}cyclohexyl)urea]
< 10	O=C(N[C@@H]1CCCC[C@@H]1C(=O)N1CC[C@@H]2[C@H](c3ccccc3)Nc3ccccc3[C@@H]21)c1ncc[nH]1 [Example 129, N-((1R,2S)-2-{[(3aR,4R,9bR)-4-Phenyl-2,3,3a,4,5,9b-hexahydro-1H-pyrrolo[3,2-c]quinolin-1-yl]carbonyl}cyclohexyl)-1H-imidazole-2-carboxamide]
< 1	COC[C@@H]1Nc2ccccc2[C@H]2[C@@H]1CCN2C(=O)[C@H]1CCCC[C@H]1NC(=O)Nc1ccc(F)cc1 [Example 205, N-(4-Fluorophenyl)-N′-((1R,2S)-2-{[(3aR,4R,9bR)-4-(methoxymethyl)-2,3,3a,4,5,9b-hexahydro-1H-pyrrolo[3,2-c]quinolin-1-yl]carbonyl}cyclohexyl)urea]
< 1	O=C(NCCc1ccccn1)N[C@@H]1CCCC[C@@H]1C(=O)N1CC[C@@H]2[C@H](c3ccccc3)Nc3ccccc3[C@@H]21 [Example 164, N-((1R,2S)-2-{[(3aR,4R,9bR)-4-Phenyl-2,3,3a,4,5,9b-hexahydro-1H-pyrrolo[3,2-c]quinolin-1-yl]carbonyl}cyclohexyl)-N′-(2-pyridin-2-ylethyl)urea]
< 1	O=C(Nc1ccccc1)N[C@@H]1CCCC[C@@H]1C(=O)N1CC[C@@H]2[C@H](c3ccsc3)Nc3ccccc3[C@@H]21 [Example 186, N-Phenyl-N′-((1R,2S)-2-{[(3aR,4R,9bR)-4-(3-thienyl)-2,3,3a,4,5,9b-hexahydro-1H-pyrrolo[3,2-c]quinolin-1-yl]carbonyl}cyclohexyl)urea]
< 10	CC(C)C[C@@H]1Nc2ccccc2[C@H]2[C@@H]1CCN2C(=O)[C@H]1CCCC[C@H]1NC(=O)c1ccccc1 [Example 66, N-((1R,2S)-2-{[(3aR,4S,9bR)-4-Isobutyl-2,3,3a,4,5,9b-hexahydro-1H-pyrrolo[3,2-c]quinolin-1-yl]carbonyl}cyclohexyl)benzamide]
< 10	COC[C@@H]1Nc2ccccc2[C@H]2[C@@H]1CCN2C(=O)[C@H]1CCCC[C@H]1NC(=O)c1ccc(C#N)c(OC)c1 [Example 274, 4-Cyano-3-methoxy-N-((1R,2S)-2-{[(3aR,4R,9bR)-4-(methoxymethyl)-2,3,3a,4,5,9b-hexahydro-1H-pyrrolo[3,2-c]quinolin-1-yl]carbonyl}cyclohexyl)benzamide]
< 10	COC[C@@H]1Nc2ccccc2[C@H]2[C@@H]1CCN2C(=O)[C@H]1CCCC[C@H]1NC(=O)c1ccc(N2CCOCC2)cc1 [Example 268, N-((1R,2S)-2-{[(3aR,4R,9bR)-4-(Methoxymethyl)-2,3,3a,4,5,9b-hexahydro-1H-pyrrolo[3,2-c]quinolin-1-yl]carbonyl}cyclohexyl)-4-morpholin-4-benzamide]
< 1	COC[C@@H]1Nc2ccccc2[C@H]2[C@@H]1CCN2C(=O)[C@H]1CCCC[C@H]1NC(=O)c1ccc2[nH]nnc2c1 [Example 219, N-((1R,2S)-2-{[(3aR,4R,9bR)-4-(methoxymethyl)-2,3,3a,4,5,9b-hexahydro-1H-pyrrolo[3,2-c]quinolin-1-yl]carbonyl}cyclohexyl)-1H-1,2,3-benzotriazole-5-carboxamide]
